Results published in paper PMC10495264 (Nature Cell Biology, 2023).
pIC50, pKi: −log10 of the molar value. “And” between values parts separate entries of the source, which are not always exact repeats. Identical values can stand only once. “Also recorded” adds a separate entry of the source.

Legend:
mTORC1 = molecular target: T1, mTORC1 (Homo sapiens, UniProt P42345); assay: Mammalian mTORC1 kinase activity assays (IVK, 4E-BP1 substrate); format: biochemical
T1 construct: endogenous mTORC1 complexes were purified from HEK293FT cells; endogenous in cells; host or cells: HEK293FT (immunoprecipitation of endogenous mTOR); the 4E-BP1 substrate was made in E. coli BL21 RP
Protocol: Following the last wash step with CHAPS IP wash buffer, the beads were washed once with kinase wash buffer (25 mM HEPES pH 7.4 and 20 mM KCl) and excess liquid was removed using a Hamilton syringe—the final bead volume was approximately 10 μl. Kinase reactions were prepared by adding 10 μl of 3×kinase assay buffer (75 mM HEPES KOH pH 7.4, 60 mM KCl and 30 mM MgCl2) to the beads. […] The reactions were incubated at 30 °C for 30 min, and stopped by the addition of one volume of 2×SDS loading buffer and boiling (5 min, 95 °C). […] Signals were quantified using the gel analysis tool of ImageJ and are shown as the phospho-4E-BP1^T37/46/4E-BP1 ratio.

TORC1 = molecular target: T2, TORC1 (Saccharomyces cerevisiae, UniProt P35169); assay: Yeast TORC1 kinase activity assays (radioactive IVK, Lst4^Loop substrate); format: biochemical; conditions: for In vitro TORC1 kinase assay - CoA compounds, relative activity, Mean: Fig. 8b; for In vitro TORC1 kinase assay - Mal-CoA/ATP competition, relative activity, Mean: Fig. 8h
T2 construct: made in house; host or cells: S. cerevisiae strain NIC005 ([RL170-2c] LEU2:GFP-TOR1)
T2 sequence (P35169 whole entry): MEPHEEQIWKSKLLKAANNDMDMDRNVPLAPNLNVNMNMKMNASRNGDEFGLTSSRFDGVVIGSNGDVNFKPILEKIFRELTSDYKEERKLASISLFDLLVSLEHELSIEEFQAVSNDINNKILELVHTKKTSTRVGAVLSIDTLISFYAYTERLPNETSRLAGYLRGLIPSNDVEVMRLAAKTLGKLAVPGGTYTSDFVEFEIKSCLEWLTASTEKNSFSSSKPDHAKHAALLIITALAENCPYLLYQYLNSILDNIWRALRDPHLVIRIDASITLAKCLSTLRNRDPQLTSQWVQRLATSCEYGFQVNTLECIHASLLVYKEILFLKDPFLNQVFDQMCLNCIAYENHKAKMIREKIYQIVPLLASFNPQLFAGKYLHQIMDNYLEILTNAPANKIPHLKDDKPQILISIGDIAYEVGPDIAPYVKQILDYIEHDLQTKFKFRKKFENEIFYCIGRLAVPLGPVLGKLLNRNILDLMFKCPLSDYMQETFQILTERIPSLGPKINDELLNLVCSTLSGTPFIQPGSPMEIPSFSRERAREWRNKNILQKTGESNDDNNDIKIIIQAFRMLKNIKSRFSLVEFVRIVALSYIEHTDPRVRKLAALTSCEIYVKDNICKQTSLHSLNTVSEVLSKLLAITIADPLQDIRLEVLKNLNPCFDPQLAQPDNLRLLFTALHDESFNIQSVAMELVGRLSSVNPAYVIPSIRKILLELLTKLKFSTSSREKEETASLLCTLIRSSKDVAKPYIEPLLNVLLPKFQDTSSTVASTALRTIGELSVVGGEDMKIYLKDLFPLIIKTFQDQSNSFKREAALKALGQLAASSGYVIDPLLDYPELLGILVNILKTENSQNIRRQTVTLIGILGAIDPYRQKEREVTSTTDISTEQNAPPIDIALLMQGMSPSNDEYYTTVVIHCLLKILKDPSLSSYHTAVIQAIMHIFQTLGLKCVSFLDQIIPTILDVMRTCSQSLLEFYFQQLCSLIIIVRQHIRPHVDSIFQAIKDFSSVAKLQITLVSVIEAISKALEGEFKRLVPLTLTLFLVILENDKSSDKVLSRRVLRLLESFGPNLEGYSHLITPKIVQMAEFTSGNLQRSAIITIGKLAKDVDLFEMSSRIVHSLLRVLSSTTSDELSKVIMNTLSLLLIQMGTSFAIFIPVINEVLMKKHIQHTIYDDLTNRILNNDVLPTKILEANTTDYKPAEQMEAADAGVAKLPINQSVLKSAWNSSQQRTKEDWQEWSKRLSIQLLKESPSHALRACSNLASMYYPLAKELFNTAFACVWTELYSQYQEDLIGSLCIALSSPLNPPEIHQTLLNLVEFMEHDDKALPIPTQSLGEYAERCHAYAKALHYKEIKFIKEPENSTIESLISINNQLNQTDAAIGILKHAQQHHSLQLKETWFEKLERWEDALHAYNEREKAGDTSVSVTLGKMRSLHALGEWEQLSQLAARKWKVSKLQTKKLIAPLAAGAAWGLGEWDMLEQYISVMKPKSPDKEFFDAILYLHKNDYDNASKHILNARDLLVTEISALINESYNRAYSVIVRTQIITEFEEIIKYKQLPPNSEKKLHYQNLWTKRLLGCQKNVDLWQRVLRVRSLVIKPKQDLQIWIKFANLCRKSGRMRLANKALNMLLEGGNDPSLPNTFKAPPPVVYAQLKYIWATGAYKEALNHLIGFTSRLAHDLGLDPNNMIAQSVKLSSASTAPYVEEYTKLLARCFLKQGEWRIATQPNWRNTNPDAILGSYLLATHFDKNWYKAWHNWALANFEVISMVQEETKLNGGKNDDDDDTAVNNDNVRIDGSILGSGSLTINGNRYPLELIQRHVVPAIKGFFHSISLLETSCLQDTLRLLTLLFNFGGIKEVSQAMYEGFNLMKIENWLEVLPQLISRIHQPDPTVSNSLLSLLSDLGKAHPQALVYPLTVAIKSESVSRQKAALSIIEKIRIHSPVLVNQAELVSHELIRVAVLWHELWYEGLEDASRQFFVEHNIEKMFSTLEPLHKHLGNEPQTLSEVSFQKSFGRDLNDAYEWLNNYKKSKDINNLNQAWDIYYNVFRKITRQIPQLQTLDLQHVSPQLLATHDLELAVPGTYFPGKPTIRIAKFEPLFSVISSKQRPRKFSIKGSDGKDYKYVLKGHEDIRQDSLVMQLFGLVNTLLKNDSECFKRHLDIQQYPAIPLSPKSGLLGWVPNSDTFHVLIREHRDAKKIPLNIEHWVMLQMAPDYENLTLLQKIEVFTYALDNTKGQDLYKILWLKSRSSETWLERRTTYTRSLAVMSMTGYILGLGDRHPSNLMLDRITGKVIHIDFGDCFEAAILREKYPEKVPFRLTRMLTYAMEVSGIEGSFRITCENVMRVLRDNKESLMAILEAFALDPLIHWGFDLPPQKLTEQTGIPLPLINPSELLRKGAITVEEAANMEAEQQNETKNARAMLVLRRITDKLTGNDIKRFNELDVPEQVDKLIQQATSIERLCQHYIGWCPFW
T2 sequence (Q08921 whole entry partner): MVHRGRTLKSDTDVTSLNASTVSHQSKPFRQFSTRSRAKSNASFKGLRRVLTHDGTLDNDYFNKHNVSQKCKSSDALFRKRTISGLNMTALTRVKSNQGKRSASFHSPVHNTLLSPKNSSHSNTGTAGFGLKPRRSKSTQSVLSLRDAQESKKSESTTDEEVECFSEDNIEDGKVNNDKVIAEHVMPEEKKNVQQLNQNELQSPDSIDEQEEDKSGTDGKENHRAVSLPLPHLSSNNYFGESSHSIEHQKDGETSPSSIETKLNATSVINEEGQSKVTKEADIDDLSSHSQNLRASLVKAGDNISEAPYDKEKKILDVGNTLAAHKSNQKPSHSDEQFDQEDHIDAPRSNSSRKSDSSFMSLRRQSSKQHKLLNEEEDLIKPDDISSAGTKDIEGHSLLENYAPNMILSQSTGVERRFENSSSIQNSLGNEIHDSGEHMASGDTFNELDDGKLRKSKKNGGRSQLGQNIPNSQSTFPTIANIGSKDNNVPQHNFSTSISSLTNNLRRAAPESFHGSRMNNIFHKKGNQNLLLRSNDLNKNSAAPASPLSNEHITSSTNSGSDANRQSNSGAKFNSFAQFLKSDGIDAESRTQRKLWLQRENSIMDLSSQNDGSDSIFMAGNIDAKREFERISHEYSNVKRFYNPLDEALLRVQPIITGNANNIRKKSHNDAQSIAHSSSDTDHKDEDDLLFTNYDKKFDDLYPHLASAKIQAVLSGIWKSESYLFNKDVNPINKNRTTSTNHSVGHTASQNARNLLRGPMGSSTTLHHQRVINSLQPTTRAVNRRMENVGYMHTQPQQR
T2 sequence (P38873 whole entry partner): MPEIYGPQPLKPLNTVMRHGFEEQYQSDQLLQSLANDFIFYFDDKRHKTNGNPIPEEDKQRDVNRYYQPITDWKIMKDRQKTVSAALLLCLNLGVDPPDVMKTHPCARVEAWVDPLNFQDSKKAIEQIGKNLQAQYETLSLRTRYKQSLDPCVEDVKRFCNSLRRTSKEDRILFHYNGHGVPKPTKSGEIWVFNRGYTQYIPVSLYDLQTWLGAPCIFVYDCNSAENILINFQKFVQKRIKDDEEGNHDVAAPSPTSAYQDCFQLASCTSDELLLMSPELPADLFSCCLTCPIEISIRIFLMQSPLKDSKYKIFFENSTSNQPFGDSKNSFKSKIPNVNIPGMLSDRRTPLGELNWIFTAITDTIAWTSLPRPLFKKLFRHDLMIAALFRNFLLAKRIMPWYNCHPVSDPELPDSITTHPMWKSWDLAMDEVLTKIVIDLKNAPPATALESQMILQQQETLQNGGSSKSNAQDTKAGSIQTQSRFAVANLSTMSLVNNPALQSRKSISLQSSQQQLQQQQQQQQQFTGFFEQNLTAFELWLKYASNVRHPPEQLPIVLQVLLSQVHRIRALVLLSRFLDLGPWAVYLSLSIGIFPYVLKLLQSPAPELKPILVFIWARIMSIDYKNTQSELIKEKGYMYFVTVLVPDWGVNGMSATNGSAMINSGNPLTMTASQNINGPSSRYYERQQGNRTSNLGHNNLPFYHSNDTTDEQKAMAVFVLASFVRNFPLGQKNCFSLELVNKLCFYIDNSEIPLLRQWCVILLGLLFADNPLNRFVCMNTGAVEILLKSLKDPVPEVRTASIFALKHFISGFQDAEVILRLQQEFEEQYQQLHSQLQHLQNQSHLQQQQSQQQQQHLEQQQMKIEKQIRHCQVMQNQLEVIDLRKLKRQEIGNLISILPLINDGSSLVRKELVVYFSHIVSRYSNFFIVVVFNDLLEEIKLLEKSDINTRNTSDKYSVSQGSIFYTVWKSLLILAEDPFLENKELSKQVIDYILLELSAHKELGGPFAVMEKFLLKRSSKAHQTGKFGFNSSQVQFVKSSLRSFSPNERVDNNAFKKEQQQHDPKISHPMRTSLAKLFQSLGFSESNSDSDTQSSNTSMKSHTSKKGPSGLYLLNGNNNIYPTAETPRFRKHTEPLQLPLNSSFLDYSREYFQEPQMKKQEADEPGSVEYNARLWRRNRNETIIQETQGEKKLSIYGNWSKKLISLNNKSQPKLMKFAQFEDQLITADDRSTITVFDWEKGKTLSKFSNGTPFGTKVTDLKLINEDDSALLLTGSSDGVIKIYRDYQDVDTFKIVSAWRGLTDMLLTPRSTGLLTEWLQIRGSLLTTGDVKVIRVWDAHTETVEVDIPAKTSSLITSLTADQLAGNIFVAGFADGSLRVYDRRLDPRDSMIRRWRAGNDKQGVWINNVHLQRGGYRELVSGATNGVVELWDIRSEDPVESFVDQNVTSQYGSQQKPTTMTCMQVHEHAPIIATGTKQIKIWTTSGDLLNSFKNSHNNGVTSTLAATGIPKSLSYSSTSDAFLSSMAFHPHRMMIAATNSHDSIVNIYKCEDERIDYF
T2 sequence (P41318 whole entry partner): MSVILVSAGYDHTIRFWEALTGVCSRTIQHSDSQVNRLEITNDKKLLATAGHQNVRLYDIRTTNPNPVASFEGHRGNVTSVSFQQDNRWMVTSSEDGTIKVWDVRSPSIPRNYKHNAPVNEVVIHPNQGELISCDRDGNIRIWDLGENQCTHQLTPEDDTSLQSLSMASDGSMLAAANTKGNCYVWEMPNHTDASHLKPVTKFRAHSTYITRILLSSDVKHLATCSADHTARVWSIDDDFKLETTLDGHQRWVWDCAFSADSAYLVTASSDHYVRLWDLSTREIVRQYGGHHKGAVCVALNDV
Protocol: TORC1 was purified from yeast cells and radioactive IVK assays were performed essentially as previously described. Briefly, kinase reactions (total volume, 30 μl) were performed with 400 ng of purified His6–Lst4^Loop protein and 60 ng TORC1 in kinase buffer (50 mM HEPES NaOH pH 7.5 and 150 mM NaCl). […] All reactions were carried out at 30 °C for 10 min and stopped with the addition of 3×sample buffer (50 mM Tris–HCl pH 6.8, 5% SDS, 0.05% bromophenol blue, 630 mM DTT and 30% glycerol) and heating at 65 °C for 10 min. Proteins were separated by SDS–PAGE and stained in-gel with SYPRO Ruby (S4942, Sigma-Aldrich) as the loading control. Substrate phosphorylation was analysed by autoradiography using a Typhoon FLA 9500 phosphorimager (GE Healthcare) and the raw density of the signals was quantified using the gel analysis tool of ImageJ.

Snf1 = test system: T3, Snf1; assay: Yeast Snf1 kinase activity assay (IVK, Mig1 substrate); format: biochemical, Saccharomyces cerevisiae; parameters: key to In vitro kinase assay Snf1 / In vitro kinase assay Snf1, Mean: Mig1 phosphorylation signal density relative to 0 mM Mal-CoA (=1); conditions: for In vitro kinase assay Snf1, Mean: 0 mM = 1; for In vitro kinase assay Snf1: Replicates 1-3, 0 mM = 1 (Ext. Fig. 10e)
T3 construct: The Snf1 complex was purified from a genomically C-terminally-tagged Snf1 yeast; TAP (C, cleaved yes); made in house; host or cells: S. cerevisiae strain Snf1-TAP (Open Biosystems)
Protocol: The Snf1 complex was purified from a genomically C-terminally-tagged Snf1 yeast cultured in YPD and washed with water before filtration to induce Snf1 activation. After filtration, the cells were frozen in liquid nitrogen and cryogenically disrupted using a Precellys homogenizer in lysis buffer (50 mM Tris–HCl pH 7.5, 150 mM NaCl, 0.1% NP-40, 10% glycerol, […] and Roche EDTA-free complete protease inhibitor). The cleared lysates were incubated with IgG-coupled Dynabeads (Dynabeads M-270 Epoxy; Invitrogen, Thermo Fisher Scientific) for 2 h at 4 °C. The beads were washed five times with lysis buffer and Snf1 was eluted through cleavage with TEV protease in elution buffer (50 mM Tris–HCl pH 7.5 and 0.5 mM EDTA) and stored at −80 °C after the addition of 10% glycerol. […] To test the effect of Mal-CoA (M4263, Sigma-Aldrich), the kinase reaction was pre-incubated with 2 μl of the compound from a 15× stock solution and threefold serial dilutions for 15 min. […] Proteins were separated by SDS–PAGE and stained with SYPRO Ruby (S4942, Sigma-Aldrich) to assess loading. Substrate phosphorylation was analysed by autoradiography using a Typhoon FLA 9500 phosphorimager (GE Healthcare) and the raw density of the signals was quantified using the gel analysis tool of ImageJ.

[1] = test system: recombinant human MCD (Mal-CoA decarboxylase); conditions: read-out: apparent Michaelis constant (Km) of recombinant human MCD for Mal-CoA; cited from earlier work
Mal-CoA levels = assay: fapR/fapOp-yeGFP Mal-CoA reporter system, GFP immunoblot; format: cell-based, Saccharomyces cerevisiae; conditions: yeast, untreated = 1, n = 4, Fig. 2b
[2] = test system: total protein malonylation; assay: Lysine malonylation in yeast cells, Mal-K/Adh1 immunoblot; format: cell-based, Saccharomyces cerevisiae; conditions: cerulenin 20 μM, 2 h, wt Ctrl = 1, Fig. 3i
TORC2 = TORC2 activity in yeast cells, p-Ypk1^T662/Ypk1 immunoblot; format: cell-based, Saccharomyces cerevisiae; conditions: cerulenin 20 μM, 2 h; for p-Ypk1(T662)/Ypk1, Mean: wt Ctrl = 1, Fig. 3f
HEK293T cells = assay: OPP incorporation assay (de novo protein synthesis); format: cell-based, human; conditions: cerulenin 50 μM, 4 h
Protocol: An OPP incorporation assay was used to test for de novo protein synthesis. […] The cells were subsequently washed with DPBS, trypsinized and fixed with ice-cold 70% ethanol for 30 min at −20 °C, followed by three washes with PBS containing 0.5% Tween-20. […] The samples were run in a Guava easyCyte HT flow cytometer (Millipore) and analysed using FlowJo (v10).

CC(C)(COP(=O)(O)OP(=O)(O)OCC1OC(n2cnc3c(N)ncnc32)C(O)C1OP(=O)(O)O)C(O)C(=O)NCCC(=O)NCCSC(=O)CC(=O)O (stereo not drawn) [Mal-CoA, malonyl-CoA]
pIC50 (mTORC1): 3.64 | In vitro mTORC1 assay, p-4E-BP1(T37/46)/4E-BP1, Mean (mTORC1; Fig. 8f, compound 0.01 mM, relative to 0 mM): 0.741 | In vitro mTORC1 assay, p-4E-BP1(T37/46)/4E-BP1, Mean (mTORC1; Fig. 8f, compound 0.05 mM, relative to 0 mM): 0.7667 | In vitro mTORC1 assay, p-4E-BP1(T37/46)/4E-BP1, Mean (mTORC1; Fig. 8f, compound 0.1 mM, relative to 0 mM): 0.821 | In vitro mTORC1 assay, p-4E-BP1(T37/46)/4E-BP1, Mean (mTORC1; Fig. 8f, compound 0.5 mM, relative to 0 mM): 0.5457 | In vitro mTORC1 assay, p-4E-BP1(T37/46)/4E-BP1, Mean (mTORC1; Fig. 8f, compound 1 mM, relative to 0 mM): 0.5376 | In vitro mTORC1 assay, p-4E-BP1(T37/46)/4E-BP1, Mean (mTORC1; Fig. 8f, compound 2.5 mM, relative to 0 mM): 0.4196 | In vitro mTORC1 assay, p-4E-BP1(T37/46)/4E-BP1, Mean (mTORC1; Fig. 8f, compound 5 mM, relative to 0 mM): 0.4175 | In vitro mTORC1 assay, p-4E-BP1(T37/46)/4E-BP1, Mean (mTORC1; Fig. 8j, Mal-CoA 2 mM, ATP 0 uM, relative to control at 500 uM ATP): 0.1107 | In vitro mTORC1 assay, p-4E-BP1(T37/46)/4E-BP1, Mean (mTORC1; Fig. 8j, Mal-CoA 2 mM, ATP 25 uM, relative to control at 500 uM ATP): 0.133 | In vitro mTORC1 assay, p-4E-BP1(T37/46)/4E-BP1, Mean (mTORC1; Fig. 8j, Mal-CoA 2 mM, ATP 100 uM, relative to control at 500 uM ATP): 0.267 | In vitro mTORC1 assay, p-4E-BP1(T37/46)/4E-BP1, Mean (mTORC1; Fig. 8j, Mal-CoA 2 mM, ATP 500 uM, relative to control at 500 uM ATP): 0.681 | In vitro mTORC1 assay, p-4E-BP1(T37/46)/4E-BP1, Mean (mTORC1; Fig. 8j, Mal-CoA 2 mM, ATP 2000 uM, relative to control at 500 uM ATP): 1.021 | In vitro mTORC1 assay, p-4E-BP1(T37/46)/4E-BP1, Mean (mTORC1; Fig. 8j, Mal-CoA 2 mM, ATP 5000 uM, relative to control at 500 uM ATP): 1.149 | pKi (mTORC1; read-out: Ki (ATP-competitive, human mTORC1)): 3.11 | pIC50 (TORC1): 3.48 | pKi (TORC1): 3.12 | In vitro TORC1 kinase assay - CoA compounds, relative activity, Mean (TORC1; compound 0.073 mM, normalised to this concentration): 1 | In vitro TORC1 kinase assay - CoA compounds, relative activity, Mean (TORC1; compound 0.22 mM): 0.8807 | In vitro TORC1 kinase assay - CoA compounds, relative activity, Mean (TORC1; compound 2 mM): 0.6407 | In vitro TORC1 kinase assay - CoA compounds, relative activity, Mean (TORC1; compound 6 mM): 0.5014 | In vitro TORC1 kinase assay - Mal-CoA/ATP competition, relative activity, Mean (TORC1; Mal-CoA 2 mM, ATP 0.015 mM): 0.1115 | In vitro TORC1 kinase assay - Mal-CoA/ATP competition, relative activity, Mean (TORC1; Mal-CoA 2 mM, ATP 0.044 mM): 0.189 | In vitro TORC1 kinase assay - Mal-CoA/ATP competition, relative activity, Mean (TORC1; Mal-CoA 2 mM, ATP 0.4 mM): 0.6161 | In vitro TORC1 kinase assay - Mal-CoA/ATP competition, relative activity, Mean (TORC1; Mal-CoA […], ATP 0.015 mM): 0.1191 | In vitro TORC1 kinase assay - Mal-CoA/ATP competition, relative activity, Mean (TORC1; Mal-CoA […], ATP 0.044 mM): 0.2424 | In vitro TORC1 kinase assay - Mal-CoA/ATP competition, relative activity, Mean (TORC1; Mal-CoA […], ATP 0.4 mM): 0.6289 | In vitro kinase assay Snf1, Mean (Snf1; Mal-CoA 0.073 mM): 1.243 | In vitro kinase assay Snf1 (Snf1; Mal-CoA 0.073 mM): 0.8487 and 1.878 and 1.003 | In vitro kinase assay Snf1, Mean (Snf1; Mal-CoA 0.22 mM): 0.975 | In vitro kinase assay Snf1 (Snf1; Mal-CoA 0.22 mM): 1.111 and 0.9316 and 0.8826 | In vitro kinase assay Snf1, Mean (Snf1; Mal-CoA 2 mM): 0.9179 | In vitro kinase assay Snf1 (Snf1; Mal-CoA 2 mM): 1.023 and 1.058 and 0.6736 | In vitro kinase assay Snf1, Mean (Snf1; Mal-CoA 6 mM): 0.7128 | In vitro kinase assay Snf1 (Snf1; Mal-CoA 6 mM): 0.7619 and 0.8143 and 0.5621 | In vitro kinase assay Snf1, Mean (Snf1; Mal-CoA […]): 0.967 | inhibition of Snf1 in IVK assay (Snf1; purified Snf1, His-tagged Mig1 substrate, IC50 not calculated): does not inhibit; also recorded: did not demonstrate substantial inhibitory effects | Km [1]: 220 to 520 µM

C/C=C/C/C=C/CCC(=O)[C@H]1O[C@H]1C(N)=O [cerulenin]
GFP/Adh1 (relative Mal-CoA levels), Mean (Mal-CoA levels; 20 μM cerulenin 2h): 2.242 | GFP/Adh1 (relative Mal-CoA levels), Mean (Mal-CoA levels; 20 μM cerulenin 3h): 5.039 | GFP/Adh1 (relative Mal-CoA levels), Mean (Mal-CoA levels; 20 μM cerulenin 4h): 7.957 | Mal-K/Adh1, Mean ([2]; acc1S1157A yeast): 8.735 | Mal-K/Adh1, Mean ([2]; wt yeast): 8.631 | p-Ypk1(T662)/Ypk1, Mean (TORC2; acc1S1157A yeast): 1.9821 | p-Ypk1(T662)/Ypk1, Mean (TORC2; wt yeast): 2.002 | phosphorylation of Ypk1^T662 (TORC2 target residue) (TORC2; yeast): did not inhibit | OPP assay (median fluorescence intensity of OPP Alexa Fluor 488, relative to DMSO), Mean (HEK293T cells; HEK293T, n = 6, Fig. 2l): 0.7454 | de novo protein synthesis (HEK293T cells): decreased
